Assay [1] deals with MPH (Ochr-MPH) (Ochrobactrum sp. M231, UniProt B2Z3X1). The note with it: CHBD-MPH, tag excised by Kex2; substrate not named, taken from enzyme name and text; assay conditions only by reference. The text has this: (§1) steady-state kinetics, purified enzyme, standard MPH assay on MPH (Ochr-MPH)
Assay [2] addresses MPH (Ochr-MPH) (Ochrobactrum sp. M231, UniProt B2Z3X1, K284Q/K285R). The note with it: CHBD-QR; same.
From the text: as §1

In assay [3] the target is MPH (Ochr-MPH) (Ochrobactrum sp. M231, UniProt B2Z3X1, K277D/K284Q/K285R). The following applies: CHBD-DQR; same.
From the text: as §1

Sequence of MPH (Ochr-MPH) (Ochrobactrum sp. M231, UniProt B2Z3X1) (B2Z3X1 entry or part of it): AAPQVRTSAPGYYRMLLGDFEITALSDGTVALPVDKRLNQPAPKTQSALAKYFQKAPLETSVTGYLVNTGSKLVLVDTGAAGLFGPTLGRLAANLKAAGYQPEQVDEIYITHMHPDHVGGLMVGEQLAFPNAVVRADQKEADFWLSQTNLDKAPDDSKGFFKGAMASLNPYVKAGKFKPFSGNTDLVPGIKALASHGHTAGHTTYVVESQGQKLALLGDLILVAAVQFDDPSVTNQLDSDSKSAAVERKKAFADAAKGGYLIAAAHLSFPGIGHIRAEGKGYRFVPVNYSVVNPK
Sequence of MPH (Ochr-MPH) (Ochrobactrum sp. M231, UniProt B2Z3X1, K284Q/K285R) (B2Z3X1 entry or part of it K284Q/K285R): as the sequence (B2Z3X1 entry or part of it) above, with K249Q, K250R counted along it
Sequence of MPH (Ochr-MPH) (Ochrobactrum sp. M231, UniProt B2Z3X1, K277D/K284Q/K285R) (B2Z3X1 entry or part of it K277D/K284Q/K285R): as the sequence (B2Z3X1 entry or part of it) above, with K242D, K249Q, K250R counted along it

On to `COP(=S)(OC)Oc1ccc([N+](=O)[O-])cc1` [methyl parathion], for which the values for the Michaelis constant (Km) on MPH (Ochr-MPH) [1], on MPH (Ochr-MPH) [2] and on MPH (Ochr-MPH) [3] were 86.9 ± 5.85 µM, 119 ± 8.26 µM and 168 ± 7.57 µM, respectively.

These data come from PMC4551668 (Microbial Cell Factories, 2015).
